Data on 16 compounds can be found in US20230295201A1 (Gilead Sciences, Inc., priority 2020, published 2023).

What is called EC50 is the concentration giving half of the maximal effect.

Holding throughout (format): cell-based
One test has as its system DENV2 replicon. Briefly: DENV-2 Huh-7 Rep EC50 (replicon luminescence). The following applies: Huh-7 replicon cells, 48 hours, read-out: DENV-2 Huh-7 Rep EC50. Put shortly: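 EC50 derived from luminescence dose-response, normalised to DMSO-only 0% inhibition wells, after 1.5 h with EnduRen substrate. Compounds were first exposed for 48 h at 37° C to DENV2 replicon Huh-7 cells (5,000/well).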
A general note: A replicon is a self-replicating genome or part of one, used to study replication in cells.

In another test the test system is RSV A2. Kind of test: RSV NHBE EC50 (RSV A2 antiviral assay in normal human bronchial epithelial cells). The following applies: NHBE cells, RSV A2, 4 days, read-out: RSV NHBE EC50.
The test system of a further test is RSV strain A2. Kind of test: RSV HEp-2 EC50 (infectious cytopathic cell protection assay). The following applies: HEp-2 cells, RSV A2, 4 days, read-out: RSV HEp-2 EC50. An outline of the steps: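 Percent inhibition of RSV-induced cytopathic effect came from remaining cell viability (CellTiter-Glo luminescence) after 4 days at 37° C. Compounds in 3-fold serial dilutions were exposed to an infectious mix of titered A2 virus and HEp-2 cells at 50,000/ml, with 0% and 100% inhibition control standards.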
On the technique in general: Protection from cytopathic effect is a common read-out in antiviral testing.

The test system of a further test is HRV16. Briefly: HRV16 HELA EC50 (cytopathic effect in H1-HeLa cells). An outline of the steps:
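Read-out is luminescent cell viability (CellTiter-Glo) after 96 h of infection at 33 °C, scaled between uninfected and infected-untreated wells. Before infection with titrated virus, compounds went onto H1-HeLa cells as triplicate 3-fold dilution series.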

[1] abbreviates: Dengue virus, DENV2, Huh-7, 48 h.
The mark [2] stands for this setting: human respiratory syncytial virus, NHBE, 96 h.
[3] abbreviates: human respiratory syncytial virus, HEp-2, 96 h.
Where [4] appears, read: 96 h, H1-HeLa cells, 33° C., read-out: HRV16 HELA EC50.
Where [5] appears, read: H1-HeLa cells, 96 h, 33° C.; read-out: HRV16 HELA EC50.

Like-named read-outs stand apart in the source and are kept apart here. Where only a bound is given, the exact number is not on record here.

As for `C[C@@H](NP(=O)(OC[C@@]1(C#N)O[C@@H](c2ccc3c(N)ncnn23)[C@H](O)[C@@H]1O)Oc1ccccc1)C(=O)OCC(C)(C)C` (stereo partly drawn) [Example 102, (2R)-neopentyl 2-(((((2R,3S,4R,5S)-5-(4-aminopyrrolo[2,1-f][1,2,4]triazin-7-yl)-2-cyano-3,4-dihydroxytetrahydrofuran-2-yl)methoxy)(phenoxy)phosphoryl)amino)propanoate], the EC50 with DENV2 replicon (setting [1]) was greater than 100 µM; in the test with RSV A2 (setting [2]), greater than 5 µM; in the test with RSV strain A2 (setting [3]), 9.95 µM; in the test with HRV16 (setting [4]), 16.7 µM.

In the case of `CC[C@H](N[P@@](=O)(OC[C@@]1(C#N)O[C@@H](c2ccc3c(N)ncnn23)[C@H](O)[C@@H]1O)Oc1ccccc1)C(=O)OC1CCCCC1` [Example 104], the EC50 in the test with DENV2 replicon was greater than 50 µM; in the test with RSV A2, 0.368 µM; in the test on RSV strain A2, 0.79 µM; with HRV16 (setting [5]), 1.8 µM.

For the compound `CC[C@H](N[P@](=O)(OC[C@@]1(C#N)O[C@@H](c2ccc3c(N)ncnn23)[C@H](O)[C@@H]1O)Oc1ccccc1)C(=O)OC1CCCCC1` [Example 105], the 50% effective concentration (EC50) is greater than 50 µM in the test with DENV2 replicon, 2.02 µM in the test on RSV A2, 3.44 µM with RSV strain A2 and 16.9 µM in the test on HRV16 (setting [5]).

As to `N#C[C@]1(COP(=O)(NC2(C(=O)OC3CCCCC3)CCC2)Oc2ccccc2)O[C@@H](c2ccc3c(N)ncnn23)[C@H](O)[C@@H]1O` (stereo partly drawn) [Example 107, cyclohexyl 1-(((((2R,3S,4R,5S)-5-(4-aminopyrrolo[2,1-f][1,2,4]triazin-7-yl)-2-cyano-3,4-dihydroxytetrahydrofuran-2-yl)methoxy)(phenoxy)phosphoryl)amino)cyclobutanecarboxylate], the EC50 in the test on DENV2 replicon (setting [1]) was greater than 50 µM; in the test with RSV A2 (setting [2]), greater than 2.89 µM; with RSV strain A2 (setting [3]), greater than 14.2 µM; in the test with HRV16 (setting [4]), greater than 35.7 µM.

As for `C[C@H](NP(=O)(OC[C@@]1(C#N)O[C@@H](c2ccc3c(N)ncnn23)[C@H](O)[C@@H]1O)Oc1ccccc1)C(=O)OC1CCCC1` (stereo partly drawn) [Example 108, (2S)-cyclopentyl 2-(((((2R,3S,4R,5S)-5-(4-aminopyrrolo[2,1-f][1,2,4]triazin-7-yl)-2-cyano-3,4-dihydroxytetrahydrofuran-2-yl)methoxy)(phenoxy)phosphoryl)amino)propanoate], the concentration giving a half-maximal response (EC50) in the test on DENV2 replicon (setting [1]) turned out to be 40.8 µM; in the test on RSV A2 (setting [2]), 0.239 µM; in the test on RSV strain A2 (setting [3]), 0.147 µM; in the test on HRV16 (setting [4]) it was 0.289 µM.

Consider `CC[C@H](NP(=O)(OC[C@@]1(C#N)O[C@@H](c2ccc3c(N)ncnn23)[C@H](O)[C@@H]1O)Oc1ccccc1)C(=O)OC1CCCC1` (stereo partly drawn) [Example 109, (2S)-cyclopentyl 2-(((((2R,3S,4R,5S)-5-(4-aminopyrrolo[2,1-f][1,2,4]triazin-7-yl)-2-cyano-3,4-dihydroxytetrahydrofuran-2-yl)methoxy)(phenoxy)phosphoryl)amino)butanoate], for which the EC50 in the test with DENV2 replicon (setting [1]) is greater than 50 µM; in the test with RSV A2 (setting [2]), 0.452 µM; with RSV strain A2 (setting [3]), 1.07 µM; with HRV16 (setting [4]), 2.49 µM.

As for `CCC(CC)COC(=O)[C@@H](NP(=O)(OC[C@@]1(C#N)O[C@@H](c2ccc3c(N)ncnn23)[C@H](O)[C@@H]1O)Oc1ccccc1)C1CCCCC1` (stereo partly drawn) [Example 116, (2S)-2-ethylbutyl 2-(((((2R,3S,4R,5S)-5-(4-aminopyrrolo[2,1-f][1,2,4]triazin-7-yl)-2-cyano-3,4-dihydroxytetrahydrofuran-2-yl)methoxy)(phenoxy)phosphoryl)amino)-2-cyclohexylacetate], the EC50 was 11.7 µM with DENV2 replicon (setting [1]), greater than 5 µM in the test with RSV A2 (setting [2]), greater than 100 µM with RSV strain A2 (setting [3]) and greater than 31.9 µM in the test on HRV16 (setting [4]).

Turning to `C[C@H](NP(=O)(OC[C@@]1(C#N)O[C@@H](c2ccc3c(N)ncnn23)[C@H](O)[C@@H]1O)Oc1ccccc1)C(=O)OC1CCC1` (stereo partly drawn) [Example 118, (2S)-cyclobutyl 2-(((((2R,3S,4R,5S)-5-(4-aminopyrrolo[2,1-f][1,2,4]triazin-7-yl)-2-cyano-3,4-dihydroxytetrahydrofuran-2-yl)methoxy)(phenoxy)phosphoryl)amino)propanoate], the EC50 in the test with DENV2 replicon (setting [1]) worked out at 27 µM; in the test on RSV A2 (setting [2]), 0.316 µM; in the test with RSV strain A2 (setting [3]), 0.214 µM; in the test on HRV16 (setting [4]), 0.424 µM.

With `N#C[C@]1(COP(=O)(N[C@H](C(=O)OCC2CC2)C2CCCCC2)Oc2ccccc2)O[C@@H](c2ccc3c(N)ncnn23)[C@H](O)[C@@H]1O` (stereo partly drawn) [Example 121, (2S)-cyclopropylmethyl 2-(((((2R,3S,4R,5S)-5-(4-aminopyrrolo[2,1-f][1,2,4]triazin-7-yl)-2-cyano-3,4-dihydroxytetrahydrofuran-2-yl)methoxy)(phenoxy)phosphoryl)amino)-2-cyclohexylacetate], the EC50 with DENV2 replicon (setting [1]) is 56.7 µM; in the test on RSV A2 (setting [2]), greater than 5 µM; with RSV strain A2 (setting [3]), greater than 100 µM; with HRV16 (setting [4]) it was greater than 100 µM.

In the case of `C[C@H](NP(=O)(OC[C@@]1(C#N)O[C@@H](c2ccc3c(N)ncnn23)[C@H](O)[C@@H]1O)Oc1ccccc1)C(=O)O[C@H]1CCNC1` (stereo partly drawn) [Example 122, (2S)—(S)-pyrrolidin-3-yl 2-(((((2R,3S,4R,5S)-5-(4-aminopyrrolo[2,1-f][1,2,4]triazin-7-yl)-2-cyano-3,4-dihydroxytetrahydrofuran-2-yl)methoxy)(phenoxy)phosphoryl)amino)propanoate], the EC50 in the test on DENV2 replicon (setting [1]) is greater than 50 µM; in the test with RSV A2 (setting [2]), greater than 5 µM; in the test with RSV strain A2 (setting [3]), 4.04 µM; in the test with HRV16 (setting [4]) it was 29.3 µM.

With `N#C[C@]1(COP(=O)(N[C@H](C(=O)OCC2CC2)C2CCCC2)Oc2ccccc2)O[C@@H](c2ccc3c(N)ncnn23)[C@H](O)[C@@H]1O` (stereo partly drawn) [Example 123, (2S)-cyclopropylmethyl 2-(((((2R,3S,4R,5S)-5-(4-aminopyrrolo[2,1-f][1,2,4]triazin-7-yl)-2-cyano-3,4-dihydroxytetrahydrofuran-2-yl)methoxy)(phenoxy)phosphoryl)amino)-2-cyclopentylacetate], the concentration giving a half-maximal response (EC50) in the test on DENV2 replicon (setting [1]) is 48.5 µM; with RSV A2 (setting [2]) it was greater than 5 µM; in the test on RSV strain A2 (setting [3]) it was greater than 100 µM; in the test with HRV16 (setting [4]), greater than 100 µM.

Take `Cc1oc(=O)oc1COC(=O)C1(NP(=O)(OC[C@@]2(C#N)O[C@@H](c3ccc4c(N)ncnn34)[C@H](O)[C@@H]2O)Oc2ccccc2)CCC1` (stereo partly drawn) [Example 125, (5-methyl-2-oxo-1,3-dioxol-4-yl)methyl 1-(((((2R,3S,4R,5S)-5-(4-aminopyrrolo[2,1-f][1,2,4]triazin-7-yl)-2-cyano-3,4-dihydroxytetrahydrofuran-2-yl)methoxy)(phenoxy)phosphoryl)amino)cyclobutane-1-carboxylate]: the EC50 with DENV2 replicon (setting [1]) was greater than 100 µM; in the test with RSV A2 (setting [2]), 3.65 µM; in the test with RSV strain A2 (setting [3]), 3.3 µM; with HRV16 (setting [4]), 7.65 µM.

As to `CC(C)(CO)C(=O)OCCNP(=O)(OC[C@@]1(C#N)O[C@@H](c2ccc3c(N)ncnn23)[C@H](O)[C@@H]1O)Oc1ccccc1` (stereo partly drawn) [Example 126, 2-(((((2R,3S,4R,5S)-5-(4-aminopyrrolo[2,1-f][1,2,4]triazin-7-yl)-2-cyano-3,4-dihydroxytetrahydrofuran-2-yl)methoxy)(phenoxy)phosphoryl)amino)ethyl 3-hydroxy-2,2-dimethylpropanoate], the EC50 was greater than 50 µM with DENV2 replicon (setting [1]), 1.79 µM with RSV A2 (setting [2]), 6.56 µM in the test on RSV strain A2 (setting [3]) and 27.9 µM with HRV16 (setting [4]).

With `CC(C)[C@H](N)C(=O)OCCNP(=O)(OC[C@@]1(C#N)O[C@@H](c2ccc3c(N)ncnn23)[C@H](O)[C@@H]1O)Oc1ccccc1` (stereo partly drawn) [Example 131, (2S)-2-(((((2R,3S,4R,5S)-5-(4-aminopyrrolo[2,1-f][1,2,4]triazin-7-yl)-2-cyano-3,4-dihydroxytetrahydrofuran-2-yl)methoxy)(phenoxy)phosphoryl)amino)ethyl 2-amino-3-methylbutanoate], the EC50 was greater than 50 µM in the test on DENV2 replicon (setting [1]), 0.636 µM in the test with RSV A2 (setting [2]), 0.315 µM in the test with RSV strain A2 (setting [3]) and 1.81 µM in the test with HRV16 (setting [4]).

`CCC(CC)COC(=O)[C@H](CC1CC1)NP(=O)(OC[C@@]1(C#N)O[C@@H](c2ccc3c(N)ncnn23)[C@H](O)[C@@H]1O)Oc1ccccc1` (stereo partly drawn) [Example 132, (2S)-2-ethylbutyl 2-(((((2R,3S,4R,5S)-5-(4-aminopyrrolo[2,1-f][1,2,4]triazin-7-yl)-2-cyano-3,4-dihydroxytetrahydrofuran-2-yl)methoxy)(phenoxy)phosphoryl)amino)-3-cyclopropylpropanoate]: the EC50 with DENV2 replicon (setting [1]) is 44.6 µM; in the test with RSV A2 (setting [2]), 0.523 µM; in the test on RSV strain A2 (setting [3]), 1.99 µM; in the test on HRV16 (setting [4]) it was 22.4 µM.

As to `C[C@H](N)C(=O)OCCNP(=O)(OC[C@@]1(C#N)O[C@@H](c2ccc3c(N)ncnn23)[C@H](O)[C@@H]1O)Oc1ccccc1` (stereo partly drawn) [Example 133, 2-(((((2R,3S,4R,5S)-5-(4-aminopyrrolo[2,1-f][1,2,4]triazin-7-yl)-2-cyano-3,4-dihydroxytetrahydrofuran-2-yl)methoxy)(phenoxy)phosphoryl)amino)ethyl L-alaninate], the EC50 with DENV2 replicon (setting [1]) is greater than 50 µM; in the test with RSV A2 (setting [2]), greater than 5 µM; in the test with RSV strain A2 (setting [3]), 4.72 µM; in the test on HRV16 (setting [4]), 16.5 µM.
